The target of assay [1] is T1, V-type immunoglobulin domain-containing suppressor of T-cell activation (Mus musculus, UniProt Q9D659).
T1 sequence (Q9D659 whole entry): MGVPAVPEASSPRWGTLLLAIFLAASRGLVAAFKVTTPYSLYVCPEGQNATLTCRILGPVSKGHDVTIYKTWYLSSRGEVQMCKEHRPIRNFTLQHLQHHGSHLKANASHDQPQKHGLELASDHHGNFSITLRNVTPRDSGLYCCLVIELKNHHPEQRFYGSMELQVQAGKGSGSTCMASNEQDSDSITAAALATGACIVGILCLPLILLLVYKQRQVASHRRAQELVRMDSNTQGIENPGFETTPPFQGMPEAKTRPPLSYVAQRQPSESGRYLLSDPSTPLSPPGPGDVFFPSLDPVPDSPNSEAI
The experiment in a line: Binding affinity to mouse VISTA ECD assessed as dissociation constant by MST analysis.

Assay [2] addresses T2, V-type immunoglobulin domain-containing suppressor of T-cell activation (Homo sapiens, UniProt Q9H7M9).
T2 sequence (Q9H7M9 whole entry): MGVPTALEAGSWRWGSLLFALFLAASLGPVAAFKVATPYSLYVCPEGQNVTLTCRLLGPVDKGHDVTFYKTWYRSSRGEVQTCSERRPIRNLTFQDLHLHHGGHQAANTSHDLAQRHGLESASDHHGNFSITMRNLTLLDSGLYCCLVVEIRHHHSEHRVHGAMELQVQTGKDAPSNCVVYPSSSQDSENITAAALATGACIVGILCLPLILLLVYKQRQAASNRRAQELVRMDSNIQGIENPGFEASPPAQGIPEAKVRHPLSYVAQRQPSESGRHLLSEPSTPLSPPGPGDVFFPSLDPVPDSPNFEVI
Description: Binding affinity to human VISTA assessed as dissociation constant by MST analysis

Each structure is given as a SMILES string.

The term Kd denotes the equilibrium constant for the complex coming apart.

In the case of `Cc1ccc2nc(Nc3nc(O)cc(CSc4nnc(C)s4)n3)nc(C)c2c1`, the Kd in assay [1] came out at 0.647 µM. `COC1C=C(CNCCNC(C)=O)N=C(Nc2cccc(O)c2)N1` (configuration not stated): the Kd in assay [2] was determined as 4.73 µM.

Source of the values: ChEMBL document CHEMBL5518211, “Design, Synthesis, and Antitumor Activity Evaluation of Novel VISTA Small Molecule Inhibitors” (J Med Chem, 2024).
